In US20020137929A1, “1 - (3-heterocyclylphenyl) isothiourea, -isourea, -guanidine and -amidine herbicidal agents” (Intellectual Property Department, BASF Aktiengesellschaft, priority 1998, published 2002):

Assays:
AMBEL (Ragweed, Common) = assay: Postemergence herbicidal evaluation; format: in vivo, Ambrosia artemisifolia
How it was run: (§1)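 Herbicidal effect was judged by eye on a 0–9 scale covering stand, vigor, deformity, size and chlorosis, compared with controls, four to five weeks after seedlings about two weeks old were sprayed (40 psi, ~0.0156–0.500 kg/ha).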

CASOB (Sicklepod) [1] = assay: Postemergence herbicidal evaluation; format: in vivo, Cassia obtusifolia
How it was run: as §1

[2] = system: CHEAL (Lambsquarters, Common); assay: Postemergence herbicidal evaluation; format: in vivo, Chenopodium album
How it was run: as §1

GALAP (Galium) [3] = assay: Postemergence herbicidal evaluation; format: in vivo, Galium aparine
How it was run: as §1

ECHCG (Barnyardgrass) = assay: Postemergence herbicidal evaluation; format: in vivo, Echinochloa crus-galli
How it was run: as §1

SETVI (Foxtail, Green) = assay: Postemergence herbicidal evaluation; format: in vivo, Setaria viridis
How it was run: as §1

[4] = system: GLXMAW (Soybean, Williams); assay: Postemergence herbicidal evaluation; format: in vivo, Glycine max, (L.) Merr. cv Williams
How it was run: as §1

ORYSAT (Rice, Tebonnet) = assay: Postemergence herbicidal evaluation; format: in vivo, Oryza sativa, (L.) Tebonnet
How it was run: as §1

CASOB (Sicklepod) [5] = assay: Preemergence herbicidal evaluation; format: in vivo, Cassia obtusifolia; conditions: rated 4-5 weeks after treatment
How it was run: (§2)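 Seeds were mixed with potting soil and planted on about one inch of soil, then sprayed with test compound in aqueous acetone at about 0.0156 to 0.500 kg per hectare. Plants grew under standard greenhouse care and were visually rated 0-9 against untreated controls 4-5 weeks post-treatment.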

GALAP (Galium) [6] = assay: Preemergence herbicidal evaluation; format: in vivo, Galium aparine; conditions: rated 4-5 weeks after treatment
How it was run: as §2

ZEAMX (Corn, Field) = assay: Preemergence herbicidal evaluation; format: in vivo, Zea mays; conditions: rated 4-5 weeks after treatment
How it was run: as §2

CYPIR (Rice Flatsedge) = assay: Preemergence weed control under flooded paddy conditions; format: in vivo, Cyperus iria; conditions: rated 3-4 weeks after treatment
How it was run: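 Flooded-pot preemergence screen with silt loam and seeds in the upper 0.5 cm. Dose about 0.0313 to 0.500 kg/ha, delivered into flood water; visual 0-9 score after 3 to 4 weeks.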

CYPSE (Flatsedge) [7] = assay: as above; format: in vivo, Cyperus serotinus; conditions: rated 3-4 weeks after treatment
How it was run: (§3)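 Seeds or propagules sown in top 0.5 cm of silt loam soil, flooded 1.5 to 3 cm above surface throughout. Compound in 50/50 v/v aqueous/acetone pipetted into flood water at about 0.0313 to 0.500 kg/ha. Visual 0-9 rating versus control after three to four weeks in greenhouse.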

[8] = system: SAGPY (Arrowhead (Pygmaea)); assay: as above; format: in vivo, Sagittaria pygmaea; conditions: rated 3-4 weeks after treatment
How it was run: as §3

CYPSE (Flatsedge) [9] = assay: Postemergence weed control under flooded paddy conditions; format: in vivo, Cyperus serotinus; conditions: postemergence weeds
How it was run: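 Weeds 3 to 5 cm tall and rice seedlings at the 1.5 to 2.5 leaf stage were flooded, with water held 1.5 to 3 cm above the soil. Compounds in 50/50 v/v aqueous/acetone went into the flood water at about 0.0313 to 0.500 kg/ha. Visual 0-9 ratings versus control were made 3 to 4 weeks later.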

C#CCOC(=O)CC1SC(=Nc2cc(-n3c(=O)cc(C(F)(F)F)n(C)c3=O)c(F)cc2Cl)N(CC(=O)OCC)C1=O (centres unmarked) [Compound 59, 2-{{2-Chloro-5-[3,6-dihydro-3-methyl-2,6-dioxo-4-(trifluoromethyl)-1(2H)-pyrimidinyl]-4-fluorophenyl}imino}-4-oxo-3,5-thiazolidinediacetic acid, 3-ethyl (2-propynyl) ester]
Postemergence herbicidal rating AMBEL (AMBEL (Ragweed, Common); Rate 0.0158 kg/ha): 9.0
Postemergence herbicidal rating AMBEL (AMBEL (Ragweed, Common); Rate 0.0315 kg/ha): 9.0
Postemergence herbicidal rating AMBEL (AMBEL (Ragweed, Common); Rate 0.0630 kg/ha): 9.0
Postemergence herbicidal rating CASOB (CASOB (Sicklepod) [1]; Rate 0.0158 kg/ha): 3.0
Postemergence herbicidal rating CASOB (CASOB (Sicklepod) [1]; Rate 0.0315 kg/ha): 9.0
Postemergence herbicidal rating CASOB (CASOB (Sicklepod) [1]; Rate 0.0630 kg/ha): 9.0
Postemergence herbicidal rating CHEAL ([2]; Rate 0.0158 kg/ha): 9.0
Postemergence herbicidal rating CHEAL ([2]; Rate 0.0315 kg/ha): 9.0
Postemergence herbicidal rating CHEAL ([2]; Rate 0.0630 kg/ha): 9.0
Postemergence herbicidal rating GALAP (GALAP (Galium) [3]; Rate 0.0158 kg/ha): 6.0
Postemergence herbicidal rating GALAP (GALAP (Galium) [3]; Rate 0.0315 kg/ha): 6.0
Postemergence herbicidal rating GALAP (GALAP (Galium) [3]; Rate 0.0630 kg/ha): 9.0
Postemergence herbicidal rating ECHCG (ECHCG (Barnyardgrass); Rate 0.0158 kg/ha): 9.0
Postemergence herbicidal rating ECHCG (ECHCG (Barnyardgrass); Rate 0.0315 kg/ha): 9.0
Postemergence herbicidal rating ECHCG (ECHCG (Barnyardgrass); Rate 0.0630 kg/ha): 9.0
Postemergence herbicidal rating SETVI (SETVI (Foxtail, Green); Rate 0.0158 kg/ha): 9.0
Postemergence herbicidal rating SETVI (SETVI (Foxtail, Green); Rate 0.0315 kg/ha): 9.0
Postemergence herbicidal rating SETVI (SETVI (Foxtail, Green); Rate 0.0630 kg/ha): 9.0
Postemergence herbicidal rating GLXMAW ([4]; Rate 0.0158 kg/ha): 8.0
Postemergence herbicidal rating GLXMAW ([4]; Rate 0.0315 kg/ha): 9.0
Postemergence herbicidal rating GLXMAW ([4]; Rate 0.0630 kg/ha): 9.0
Postemergence herbicidal rating ORYSAT (ORYSAT (Rice, Tebonnet); Rate 0.0158 kg/ha): 4.5
Postemergence herbicidal rating ORYSAT (ORYSAT (Rice, Tebonnet); Rate 0.0315 kg/ha): 6.0
Postemergence herbicidal rating ORYSAT (ORYSAT (Rice, Tebonnet); Rate 0.0630 kg/ha): 5.5
Preemergence herbicidal rating CASOB (CASOB (Sicklepod) [5]; rate 0.0156 kg/ha): 0.0
Preemergence herbicidal rating CASOB (CASOB (Sicklepod) [5]; rate 0.0313 kg/ha): 0.0
Preemergence herbicidal rating CASOB (CASOB (Sicklepod) [5]; rate 0.0625 kg/ha): 2.0
Preemergence herbicidal rating CASOB (CASOB (Sicklepod) [5]; rate 0.1250 kg/ha): 7.0
Preemergence herbicidal rating CASOB (CASOB (Sicklepod) [5]; rate 0.2500 kg/ha): 7.5
Preemergence herbicidal rating CASOB (CASOB (Sicklepod) [5]; rate 0.5000 kg/ha): 9.0
Preemergence herbicidal rating GALAP (GALAP (Galium) [6]; rate 0.0156 kg/ha): 0.0
Preemergence herbicidal rating GALAP (GALAP (Galium) [6]; rate 0.0313 kg/ha): 0.0
Preemergence herbicidal rating GALAP (GALAP (Galium) [6]; rate 0.0625 kg/ha): 6.0
Preemergence herbicidal rating GALAP (GALAP (Galium) [6]; rate 0.1250 kg/ha): 7.0
Preemergence herbicidal rating GALAP (GALAP (Galium) [6]; rate 0.2500 kg/ha): 9.0
Preemergence herbicidal rating ZEAMX (ZEAMX (Corn, Field); rate 0.0156 kg/ha): 1.0
Preemergence herbicidal rating ZEAMX (ZEAMX (Corn, Field); rate 0.0313 kg/ha): 0.5
Preemergence herbicidal rating ZEAMX (ZEAMX (Corn, Field); rate 0.0625 kg/ha): 1.5
Preemergence herbicidal rating ZEAMX (ZEAMX (Corn, Field); rate 0.1250 kg/ha): 3.0
Preemergence herbicidal rating ZEAMX (ZEAMX (Corn, Field); rate 0.2500 kg/ha): 3.5
Preemergence herbicidal rating ZEAMX (ZEAMX (Corn, Field); rate 0.5000 kg/ha): 6.0
CYPIR herbicidal effect rating (CYPIR (Rice Flatsedge); 0.0625 kg/ha): 0.0
CYPIR herbicidal effect rating (CYPIR (Rice Flatsedge); 0.1250 kg/ha): 0.0
CYPIR herbicidal effect rating (CYPIR (Rice Flatsedge); 0.2500 kg/ha): 9.0
CYPSE herbicidal effect rating (CYPSE (Flatsedge) [7]; 0.0625 kg/ha): 0.0
CYPSE herbicidal effect rating (CYPSE (Flatsedge) [7]; 0.1250 kg/ha): 0.0
CYPSE herbicidal effect rating (CYPSE (Flatsedge) [7]; 0.2500 kg/ha): 7.0
SAGPY herbicidal effect rating ([8]; 0.0625 kg/ha): 0.0
SAGPY herbicidal effect rating ([8]; 0.1250 kg/ha): 0.0
SAGPY herbicidal effect rating ([8]; 0.2500 kg/ha): 3.0
Herbicidal rating CYPSE (CYPSE (Flatsedge) [9]; Rate 0.0625 kg/ha, rated 3 to 4 weeks after treatment): 0.0
Herbicidal rating CYPSE (CYPSE (Flatsedge) [9]; rate 0.1250 kg/ha, 3-4 weeks after treatment): 0.0
Herbicidal rating CYPSE (CYPSE (Flatsedge) [9]; rate 0.2500 kg/ha, 3-4 weeks after treatment): 7.0
